For orientation: IC50 means the concentration at which inhibition is half-maximal. Usually inhibition stands for the relative decrease from the control value, in per cent.

Consider nine compounds from ChEMBL document CHEMBL5053549, “Discovery of Potent and Novel Dual PARP/BRD4 Inhibitors for Efficient Treatment of Pancreatic Cancer” (J Med Chem, 2021).

The target in assay [1] is Poly [ADP-ribose] polymerase 1 (Homo sapiens, UniProt P09874). Kind of assay: Inhibition of PARP1 (unknown origin) incubated for 45 mins in presence of biotinylated-NAD+ by microplate reader analysis.
Sequence of Poly [ADP-ribose] polymerase 1 (P09874 whole entry): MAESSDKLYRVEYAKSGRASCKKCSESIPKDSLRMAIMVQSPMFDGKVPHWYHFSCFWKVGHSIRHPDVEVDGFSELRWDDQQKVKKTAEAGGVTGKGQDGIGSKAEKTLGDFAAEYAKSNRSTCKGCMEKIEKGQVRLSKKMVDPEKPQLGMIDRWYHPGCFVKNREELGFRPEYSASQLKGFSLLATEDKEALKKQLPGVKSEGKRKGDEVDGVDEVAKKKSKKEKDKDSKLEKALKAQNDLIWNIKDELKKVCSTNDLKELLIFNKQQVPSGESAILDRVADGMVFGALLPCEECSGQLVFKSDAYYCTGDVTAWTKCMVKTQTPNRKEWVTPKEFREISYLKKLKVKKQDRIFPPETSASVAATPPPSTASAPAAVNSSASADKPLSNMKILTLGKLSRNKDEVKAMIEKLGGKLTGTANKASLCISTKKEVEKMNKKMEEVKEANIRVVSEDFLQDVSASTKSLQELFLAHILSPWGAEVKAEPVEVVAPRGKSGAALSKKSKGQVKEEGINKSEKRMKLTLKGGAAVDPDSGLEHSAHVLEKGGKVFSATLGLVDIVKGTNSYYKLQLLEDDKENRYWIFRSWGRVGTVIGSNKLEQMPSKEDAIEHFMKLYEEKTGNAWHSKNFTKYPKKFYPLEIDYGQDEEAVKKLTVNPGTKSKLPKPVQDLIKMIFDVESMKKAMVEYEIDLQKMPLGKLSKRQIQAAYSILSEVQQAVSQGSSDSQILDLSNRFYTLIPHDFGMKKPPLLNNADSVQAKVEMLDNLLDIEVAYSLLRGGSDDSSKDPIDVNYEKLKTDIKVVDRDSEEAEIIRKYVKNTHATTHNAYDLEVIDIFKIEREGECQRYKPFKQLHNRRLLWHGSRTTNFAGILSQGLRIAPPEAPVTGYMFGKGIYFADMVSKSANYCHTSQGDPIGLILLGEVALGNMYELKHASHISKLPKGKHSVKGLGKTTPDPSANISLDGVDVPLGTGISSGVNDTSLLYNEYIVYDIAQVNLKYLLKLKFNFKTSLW
For assay [2], the target named is T1, Bromodomain-containing protein 4 (Homo sapiens, UniProt O60885). Nature of the assay: Inhibition of recombinant BRD4 (unknown origin) incubated for 120 mins by TR-FRET assay. In general terms: In TR-FRET formats the signal depends on donor and acceptor labels being close together.
The next assay deals with SW1990. Nature of the assay: Antiproliferative activity against human SW1990 cells assessed as reduction in cell viability after 4 days by MTT assay. The assay is classed as functional, cell-based. The note with it: SW1990, 96 h. In general terms: Formazan colour is commonly taken as a measure of viable cells.
For the next assay, the system named is MDA-MB-231. Nature of the assay: Antiproliferative activity against human MDA-MB-231 cells assessed as reduction in cell viability after 7 days. The assay is classed as functional, cell-based. The note with it: MDA-MB-231, 168 h.
Assay [3] concerns the target T1, Bromodomain-containing protein 4. Nature of the assay: Inhibition of recombinant BRD4 (unknown origin) at 0.5 uM incubated for 120 mins by TR-FRET assay relative to control.

For the compound `CC[C@@H]1C(=O)N(C)c2cnc(Nc3cccc(-c4nc5c(C(N)=O)cccc5[nH]4)c3)nc2N1C1CCCC1`, the values for the IC50 in assay [1] and in assay [2] were 155 nM and 693 nM, respectively.

Regarding `COc1cc(-c2nc3c(C(N)=O)cccc3[nH]2)ccc1N(C)c1ncc2c(n1)N(C1CCCC1)[C@H](C)C(=O)N2C`, the IC50 with SW1990 worked out at 1530 nM; in the assay on MDA-MB-231, 460 nM; in assay [1], 25 nM; in assay [2] it was 202 nM.

On to `CC[C@@H]1C(=O)N(C)c2cnc(Nc3ccc(-c4nc5c(C(N)=O)cccc5[nH]4)cc3OC)nc2N1C1CCCC1`, for which the IC50 in the assay on SW1990 is 2120 nM; in the assay on MDA-MB-231, 430 nM; in assay [1], 150 nM; in assay [2], 237 nM.

Consider `CC[C@@H]1C(=O)N(C)c2cnc(Nc3ccc(C(=O)NCc4nc5c(C(N)=O)cccc5[nH]4)cc3OC)nc2N1C1CCCC1`, for which the IC50 amounted to 341 nM in assay [1] and 374 nM in assay [2].

Turning to `CC[C@@H]1C(=O)N(C)c2cnc(Nc3ccc(-c4nc5c(C(N)=O)cccc5[nH]4)cc3OC(C)C)nc2N1C1CCCC1`, the inhibition in assay [3] turned out to be 75%. Besides, the IC50 in assay [1] turned out to be 2050 nM.

Turning to `CC[C@@H]1C(=O)N(C)c2cnc(Nc3ccc(Cc4nc5c(C(N)=O)cccc5[nH]4)cc3OC)nc2N1C1CCCC1`, the IC50 in the assay on SW1990 was 3120 nM; with MDA-MB-231, 810 nM; in assay [1], 355 nM; in assay [2] it was 186 nM.

With `CC[C@@H]1C(=O)N(C)c2cnc(Nc3ccc(CC(=O)NCc4nc5c(C(N)=O)cccc5[nH]4)cc3OC)nc2N1C1CCCC1`, the IC50 in assay [1] turned out to be 498 nM; in assay [2] it was 276 nM.

On to `CCOc1cc(-c2nc3c(C(N)=O)cccc3[nH]2)ccc1Nc1ncc2c(n1)N(C1CCCC1)[C@H](CC)C(=O)N2C`, for which the IC50 is 2450 nM in the assay with SW1990, 790 nM in the assay on MDA-MB-231 and 306 nM in assay [1]. The inhibition in assay [3] came to 86%.

In the case of `CC[C@@H]1C(=O)N(C)c2cnc(Nc3ccc(-c4nc5c(C(N)=O)cccc5[nH]4)cc3OC)nc2N1Cc1ccc(OC)cc1OC`, the inhibition in assay [3] is 17%. Besides, the IC50 in assay [1] is 570 nM.
